We go through three molecules from patent US12162874B2, “Peptidomimetic-based antibody surrogate for HER2” (University of South Florida, priority 2021, dated 2024).

What is called IC50 is the midpoint of a concentration-inhibition curve. Broadly, the Kd is a measure of binding affinity in units of concentration. The low end stands for tighter binding, the high end for weaker binding.

“And” between values parts separate entries of the source, which are not always exact repeats. Identical values can stand only once. “Also recorded” adds a separate entry of the source.

The test system of series [1] is P-HER2. Nature of the series: Western blot of HER2 phosphorylation in SKBR3 cells. As to conditions: for inhibition of HER2 phosphorylation (in words): SKBR3 cell lysates, western blot; for expression of P-HER2: 10 μM. In kind it is cell-based, human. The procedure:
(§1) SKBR3 cells were seeded into a 6-well plate at a concentration of 1×10^5 cells/well. After 12 h attachment at 37° C. and 5% CO2, the cells were starved overnight in serum-reduced McCoy's 5A Medium followed by treatment with different concentration of M-3-6 or M-3-6-D for 4 h, and then washed with ice-cold PBS and resuspended in ice-cold RIPA buffer supplemented with Halt Protease and Phosphatase Inhibitor Cocktail. Subsequently, the cells were incubated on ice for 10 min and centrifuged at 14,000×g at 4° C. for 10 min. An equal amount of protein was run on 4-12% Bis-Tris gels, transferred to polyvinylidene difluoride membranes (Millipore) and western blotted with anti-phosphorylated HER2, anti-phosphorylated AKT, anti-phosphorylated ERK and GAPDH. The experiments were conducted in triplicates and repeated for three times.
On the technique in general: In western blotting, separated proteins are transferred to a membrane and probed.

The test system of series [2] is P-ERK. Nature of the series: Western blot of ERK phosphorylation in SKBR3 cells. It counts as cell-based. As to conditions: for phosphorylation of ERK (in words): SKBR3 cell lysates, western blot. The procedure:
as §1

Series [3] relates to SKBR3 cells. Description: Inhibition of EGF-induced cell proliferation (CCK-8). Conditions: SKBR3, EGF 100 ng/mL. In kind it is cell-based. The procedure:
SKBR3 cells were cultured in McCoy's 5A Medium (Gibco) medium containing 10% fetal bovine serum and 1% penicillin/streptomycin in an atmosphere of 5% CO2 at 37° C.
SKBR3 cells in good condition were seeded into a 96-well plate at a concentration of 1×10^3 cells/well in 100 μL of complete growth medium. After 24 hours of attachment at 37° C. and 5% CO2, medium was replaced by fresh serum reduced McCoy's 5A Medium and cell were serum-starved overnight. Then serum-reduced EGF (100 ng/mL) McCoy's 5A Medium in the presence of different concentration of M-3-6 and M-3-6-D was added to the cells in hexaplicate. After 72 h, the CCK-8 reagents were added according to the manufacturer's recommendations.

The conditions of series [4]: i.p. every two days for two weeks.
Description: SKBR3 cells were harvested, resuspended in PBS, and injected subcutaneously into 4-6 weeks old Male BALB/c nude mice. […] Mice were injected through the intraperitoneal every two days for seven injections.
The test system of series [5] is SKBR3 tumor xenograft. Description: Antitumor study in SKBR3 xenograft nude mice, tumor volume. It counts as in vivo, mouse. Conditions: for tumor volume after the last drug injection on day 12: after end of dosing, until day 24.
Description: Male BALB/c nude mice, 4-6 weeks old, were provided by the Shanghai Bikai Experimental Animal Center, with the license number SOXK (Hu) 2008-0016, and maintained under specific-pathogen-free conditions.
SKBR3 cells were harvested, resuspended in PBS, and injected subcutaneously into 4-6 weeks old Male BALB/c nude mice. […] Mice were injected through the intraperitoneal every two days for seven injections. 12 days after injection, the mice in each group were killed, and the tumors were removed for examination. The tumor volumes were determined by measuring length (1) and width (w) and calculating volume (V=lw^2/2).
For series [6], the system named is P-AKT. Nature of the series: Western blot of AKT phosphorylation in SKBR3 cells. In kind it is cell-based. The procedure: as §1
Series [7] addresses EGFR (Homo sapiens, UniProt P00533). Description: Surface plasmon resonance (SPR) binding to EGFR (selectivity). The procedure:
Next, the binding affinity of both M-3-6 and M-3-6-D to HER2 ECD in vitro were measured by surface plasmon resonance (SPR) assay (FIG. 10 in supporting information). […]. In addition, EGFR, known as ERBB1, another member of the human epidermal growth factor receptor family was chosen to test the selectivity of M-3-6. […].
Binding kinetics of M-3-6 or M-3-6-D to HER2 was measured by surface plasmon resonance (OpenSPR, Nicoyalife). After HER2 was covalently coupled to the carboxyl sensor chips (Nicoyalife), M-3-6 or M-3-6-D in PBS running buffer (pH 7.4) was slowly flowed over the sensor chip for 5 min to allow interaction. The running buffer was then allowed to flow for 10 min to collect the dissociation data. After subtracting the background, the signal response vs. time curve was obtained, binding kinetic parameters were obtained by fitting the curve to a one-to-one binding model using Trace-Drawer (Nicoyalife) software.

Series [8] concerns P-HER2. Nature of the series: Immunohistochemical staining of SKBR3 tumor sections. It counts as in vivo, mouse. As to conditions: tumors resected after sacrifice. The procedure: For the immunohistochemical analysis, the hydrated paraffin section was incubated in a blocking solution (10% donkey serum +5% nonfat dry milk +4% BSA +0.1% Triton X-100) for 10 min, and then incubated at 4° C. overnight with anti-P-HER2, P-AKT, P-ERK. After washing with PBS, the sections were incubated with diluted (1:200) biotinylated secondary antibody for 30 min. Subsequently, the sections were washed again in PBS and incubated for 30 min with the preformed avidin-horseradish peroxidase macromolecular complex. Development of peroxidase reaction was achieved by incubation in 0.01% 3, 3-diaminobenzidine tetrahydrochloride (DAB) in PBS containing 0.01% hydrogen peroxide for approximately 5 min at room temperature. Sections were then washed thoroughly in tap water, counterstained in haematoxylin, dehydrated in absolute alcohol, cleared in xylene and mounted in synthetic resin for microscopic examination.

In series [9] the target is T1, HER2 (Homo sapiens, UniProt P04626).
T1 construct: Fc (human IgG Fc); purchased Creative BioMart
T1 sequence (P04626 23-652): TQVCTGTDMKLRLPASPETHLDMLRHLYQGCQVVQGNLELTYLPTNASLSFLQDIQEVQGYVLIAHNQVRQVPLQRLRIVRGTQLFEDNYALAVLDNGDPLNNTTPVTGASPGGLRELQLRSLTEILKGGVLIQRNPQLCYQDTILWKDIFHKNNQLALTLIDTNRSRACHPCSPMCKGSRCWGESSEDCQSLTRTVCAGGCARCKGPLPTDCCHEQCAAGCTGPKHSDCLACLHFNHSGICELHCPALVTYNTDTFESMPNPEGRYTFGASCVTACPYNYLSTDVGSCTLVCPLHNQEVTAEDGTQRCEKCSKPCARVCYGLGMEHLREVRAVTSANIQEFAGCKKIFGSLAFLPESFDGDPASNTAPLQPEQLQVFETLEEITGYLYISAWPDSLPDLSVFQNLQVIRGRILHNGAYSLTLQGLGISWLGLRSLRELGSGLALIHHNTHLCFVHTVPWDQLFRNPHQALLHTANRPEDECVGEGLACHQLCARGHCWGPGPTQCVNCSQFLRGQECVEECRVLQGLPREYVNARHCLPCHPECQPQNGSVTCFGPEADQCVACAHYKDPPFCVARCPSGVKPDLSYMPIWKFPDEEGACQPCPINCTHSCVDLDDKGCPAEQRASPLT
Description: Fluorescence polarization (FP) binding assay. Conditions: 50 nM FITC labeled AApeptide, HER2 0 to 2 μM in PBS. The procedure: The FP experiment was performed by incubating 50 nM FITC labeled AApeptides with HER2 (0 to 2 μM) in PBS. Dissociation constants (Kd) was determined by plotting the fluorescence anisotropy values as a function of protein concentration, and the plots were fitted to the following equation. The Lst is the concentration of the AApeptides and the x stands for the concentration of the protein. The experiments were conducted in triplicates and repeated for three times. y=FPmin+(FPmax−FPmin)*(KD+Lst+x-sqrt((KD+Lst+x)^2−4*Lst*x))/(2*Lst)
In general terms: In fluorescence polarisation assays a small probe gives low polarisation when free and higher when bound to something large.

Series [10] relates to pronase. Conditions: 0.1 mg/mL pronase, 100 mM ammonium bicarbonate buffer, 37° C., 24 h.
Description: Then, the reaction mixtures were concentrated in a speed vacuum to remove water and ammonium bicarbonate. The resulting residues were re-dissolved in H2O/MeCN and analyzed on a Waters analytical HPLC system.
Series [11] addresses T2, HER2 ECD (Homo sapiens, UniProt P04626).
T2 construct: Fc (human IgG Fc); purchased Creative BioMart
Description: Surface plasmon resonance (SPR) binding to HER2. On the technique in general: Surface plasmon resonance follows binding to a sensor surface in real time, without labels.

Where [12] appears, read: 8 mg/kg i.p. every two days for two weeks.

T2 sequence (P04626 23-652): as above
Sequence of EGFR (P00533 25-1210): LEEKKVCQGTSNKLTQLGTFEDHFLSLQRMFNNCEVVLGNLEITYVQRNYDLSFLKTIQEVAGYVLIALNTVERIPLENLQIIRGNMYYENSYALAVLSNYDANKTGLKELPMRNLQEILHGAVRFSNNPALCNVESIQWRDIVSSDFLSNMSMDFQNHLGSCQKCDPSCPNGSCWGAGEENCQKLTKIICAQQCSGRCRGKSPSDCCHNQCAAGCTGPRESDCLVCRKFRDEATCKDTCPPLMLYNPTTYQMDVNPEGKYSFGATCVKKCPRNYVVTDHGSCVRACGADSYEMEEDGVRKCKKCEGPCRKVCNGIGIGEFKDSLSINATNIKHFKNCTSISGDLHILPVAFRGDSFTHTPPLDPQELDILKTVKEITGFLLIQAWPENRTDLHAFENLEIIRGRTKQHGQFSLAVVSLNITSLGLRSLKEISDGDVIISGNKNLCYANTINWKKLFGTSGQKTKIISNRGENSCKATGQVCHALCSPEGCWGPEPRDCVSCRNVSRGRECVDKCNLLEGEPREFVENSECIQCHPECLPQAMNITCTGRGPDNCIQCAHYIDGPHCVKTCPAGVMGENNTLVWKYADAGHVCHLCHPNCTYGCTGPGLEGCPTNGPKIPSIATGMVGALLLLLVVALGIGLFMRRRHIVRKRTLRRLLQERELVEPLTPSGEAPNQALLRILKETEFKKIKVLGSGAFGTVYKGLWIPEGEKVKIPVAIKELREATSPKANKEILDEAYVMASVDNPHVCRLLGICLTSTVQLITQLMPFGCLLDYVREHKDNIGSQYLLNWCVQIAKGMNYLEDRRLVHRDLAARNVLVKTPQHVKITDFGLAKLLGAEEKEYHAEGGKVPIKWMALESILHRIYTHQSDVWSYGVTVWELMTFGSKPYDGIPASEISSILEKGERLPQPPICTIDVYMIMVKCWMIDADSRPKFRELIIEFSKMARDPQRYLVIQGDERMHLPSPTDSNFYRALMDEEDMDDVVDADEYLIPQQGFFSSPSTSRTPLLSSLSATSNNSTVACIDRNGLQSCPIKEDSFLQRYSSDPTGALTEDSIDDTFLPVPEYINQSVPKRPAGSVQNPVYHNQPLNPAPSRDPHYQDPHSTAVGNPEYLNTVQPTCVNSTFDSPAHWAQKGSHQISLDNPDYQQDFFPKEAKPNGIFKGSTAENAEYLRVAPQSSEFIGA

Regarding `COc1cc(CC(=O)N2CC(=O)N[C@@H](Cc3ccccc3)CN(C(=O)Cc3ccc4ccccc4c3)CC(=O)N[C@@H](CCCCN)CN(C(=O)Cc3ccc4c(c3)OCO4)CC(=O)N[C@@H](CCCCN)CN(CC(N)=O)C(=O)CCSCc3ccc(cc3)C(=O)N[C@@H](CC(C)C)C2)cc(OC)c1` [M-3-6], the “inhibition of HER2 phosphorylation (in words)” value in series [1] was “dose-dependent inhibition of HER2 receptor phosphorylation”. For the same molecule, the IC50 in series [1] (SKBR3 cells, 0-30 μM, 4 h, read-out: IC50 inhibition of HER2 phosphorylation) stood at 12.9 µM; in series [2] (SKBR3 cells, 4 h) it was 10.6 µM; in series [3] (serum-reduced, 72 h, read-out: IC50 antiproliferative activity on EGF-stimulated cells) it was 17.9 µM; in series [6] (SKBR3 cells, 4 h), 16.9 µM. In addition, in series [1] (SKBR3 cells, 4 h), the “expression of P-HER2” value was “relatively high”. For the same molecule, the “phosphorylation of ERK (in words)” value in [2] is “reduction in the phosphorylation of AKT and ERK”. Further, the “inhibition of EGF-induced proliferation (in words)” value in series [3] is reported as “inhibited EGF-induced proliferation significantly in a dose-dependent manner”. For the same molecule, the “effect on body weight gain” value in series [4] is given as “ignorable effect on the body weight gain”. For the same molecule, the “tumor volume / antitumor effect” value is on record as “no significant reduction in tumor volume” in [5] (setting [12]) and “much more improved antitumor effect” in series [5] (32 mg/kg i.p. every two days for two weeks). For the same molecule, the “tumor volume after the last drug injection on day 12” value in series [5] was “significant tumor growth”. For the same molecule, the “phosphorylation of AKT (in words)” value in [6] (SKBR3 cell lysates, western blot) is “reduction in the phosphorylation of AKT and ERK”. The “weaker binding to EGFR than to HER2” value in series [7] is reported as 10 fold. For the same molecule, the “phosphorylation level of HER2 in tumor sections” value in series [8] was “modest inhibitory effect”.
Consider `COc1cc(CC(=O)N2CC(=O)N[C@@H](Cc3ccccc3)CN(C(=O)Cc3ccc4ccccc4c3)CC(=O)N[C@@H](CCCCN)CN(C(=O)Cc3ccc4c(c3)OCO4)CC(=O)N[C@@H](CCCCN)CN(CC(=O)NCCC(=O)NC(CCCCNC(=S)Nc3ccc(-c4c5ccc(=O)cc-5oc5cc(O)ccc45)c(C(=O)O)c3)C(N)=O)C(=O)CCSCc3ccc(cc3)C(=O)N[C@@H](CC(C)C)C2)cc(OC)c1` (some centres unmarked) [M-3-6-F], for which the Kd in [9] was 0.28 µM and 0.278 µM.
Turning to `COc1cc(CC(=O)N2CC(=O)N[C@@H](Cc3ccccc3)CN(C(=O)Cc3ccc4ccccc4c3)CC(=O)N[C@@H](CCCCN)CN(C(=O)Cc3ccc4c(c3)OCO4)CC(=O)N[C@@H](CCCCN)CN(CC(=O)N[C@@H](CCCCNC(=O)COCCOCCNC(=O)Cn3cc(COc4cc(OCc5cn(CC(=O)NCCOCCOCC(=O)NCCCC[C@H](NC(=O)CN6C[C@H](CCCCN)NC(=O)CN(C(=O)Cc7ccc8c(c7)OCO8)C[C@H](CCCCN)NC(=O)CN(C(=O)Cc7ccc8ccccc8c7)C[C@H](Cc7ccccc7)NC(=O)CN(C(=O)Cc7cc(OC)cc(OC)c7)C[C@H](CC(C)C)NC(=O)c7ccc(cc7)CSCCC6=O)C(N)=O)nn5)cc(C(=O)NCCNC(=O)OC(C)(C)C)c4)nn3)C(N)=O)C(=O)CCSCc3ccc(cc3)C(=O)N[C@@H](CC(C)C)C2)cc(OC)c1` [M-3-6-D], in series [1], the “inhibition of HER2 phosphorylation (in words)” value is “even stronger inhibition of phosphorylation than M-3-6; also recorded: much more effective phosphorylation inhibition compared with M-3-6”. Also, the “expression of P-HER2” value in series [1] (SKBR3 cells, 4 h) is recorded as “almost complete blocked”. Besides, in [2], the “phosphorylation of ERK (in words)” value is “more pronounced effect on the suppression of P-ERK compared with P-AKT”. The “inhibition of EGF-induced proliferation (in words)” value in [3] is given as “inhibited EGF-induced proliferation significantly in a dose-dependent manner”. Besides, the “effect on body weight gain” value in series [4] is reported as “ignorable effect on the body weight gain”. Further, the “tumor volume / antitumor effect” value in series [5] (setting [12]) was “significantly inhibit the tumor growth; also recorded: significant antitumor effect”. Besides, the “tumor volume after the last drug injection on day 12” value in [5] is recorded as “significant reduction in tumor volume was still observed”. Further, the “degradation by pronase monitored by HPLC” value in series [10] was “no detectable degradation”. Further, the “improvement of binding to HER2 compared with monomer M-3-6” value in [11] is roughly 7 fold. Also, in [8], the “phosphorylation level of HER2 in tumor sections” value was “comparable efficiency with trastuzumab”.
